{"source": "ChEMBL document CHEMBL1944525", "about": "“Synthesis and activity of folate conjugated didemnin B for potential treatment of inflammatory diseases” (Bioorg Med Chem Lett, 2012)", "key": {"[1]": {"test_system": "RAW264.7", "assay": "Cytotoxicity against mouse RAW264.7 cells incubated for 5 hrs followed by replacement with fresh media measured after 72 hrs by XTT assay", "type": "functional, cell-based"}, "[2]": {"test_system": "RAW264.7", "assay": "Displacement of [3H]-folic acid from folate receptor on mouse RAW264.7 cells assessed as relative binding after 1 hr by liquid scintillation counting", "type": "cell-based"}, "[3]": {"test_system": "RAW264.7", "assay": "Antiinflammatory activity in mouse RAW264.7 cells assessed as inhibition of LPS-induced TNFalpha production after 72 hrs […]", "type": "functional, cell-based", "conditions": "RAW264.7, 72 h"}}, "data": [{"smiles": "CC[C@H](C)[C@H]1NC(=O)[C@@H](NC(=O)[C@@H](CC(C)C)N(C)C(=O)[C@H]2CCCN2C(=O)C(C)OC(=O)OCCSSC[C@H](NC(=O)[C@H](CC(=O)O)NC(=O)[C@H](CC(=O)O)NC(=O)[C@H](CCCNC(=N)N)NC(=O)[C@H](CC(=O)O)NC(=O)CC[C@H](NC(=O)c2ccc(NCc3cnc4nc(N)[nH]c(=O)c4n3)cc2)C(=O)O)C(=O)O)[C@@H](C)OC(=O)[C@H](Cc2ccc(OC)cc2)N(C)C(=O)[C@@H]2CCCN2C(=O)[C@H](CC(C)C)NC(=O)[C@@H](C)C(=O)[C@H](C(C)C)OC(=O)C[C@@H]1O", "note": "(some centres undefined) [FOLATE DIDEMNIN B]", "values": [{"measurement": "Activity", "setting": "[1]", "value": "Dose-dependent effect"}, {"measurement": "IC50", "setting": "[1]", "value": 13, "unit": "nM"}, {"measurement": "relative binding affinity (RBA)", "setting": "[2]", "value": 0.18}, {"measurement": "IC50", "setting": "[3]", "value": 5, "unit": "nM"}]}]}
